Tests used:
[1] = molecular target: Human immunodeficiency virus type 1 protease (Human immunodeficiency virus 1, UniProt Q72874); test: Inhibitory activity against HIV-1 protease
[2] = test system: Human immunodeficiency virus 1; test: Antiviral activity; format: functional, organism-based

| SMILES | Ki [1] | EC50 [2] |
| --- | --- | --- |
| Cc1ccc(S(=O)(=O)N(CC(C)C)[C@@H](CCCCNC(=O)CNc2ccccc2)C(=O)O)cc1 | 7.8 nM | – |
| Cc1ccc(S(=O)(=O)N(CC(C)C)[C@@H](CCCCNC(=O)CN(Cc2ccccc2)c2ccccc2)C(=O)O)cc1 | 0.72 nM | – |
| Cc1ccc(S(=O)(=O)N(CC(C)C)[C@H](CO)CCCCNC(=O)CN(c2ccccc2)C(C)C)cc1 | 16 nM | 1100 nM |
| Cc1ccc(S(=O)(=O)N(CC(C)C)[C@@H](CCCCNC(=O)CS(=O)(=O)c2ccccc2)C(=O)O)cc1 | 20 nM | – |
| Cc1ccc(S(=O)(=O)N(CC(C)C)[C@@H](CCCCNC(=O)OCc2ccccc2)C(=O)O)cc1 | > 300 nM | – |
| CC(C)CN([C@H](CO)CCCCNC(=O)CN(Cc1ccccc1)c1ccccc1)S(=O)(=O)c1ccc(N)cc1 | 2.4 nM | – |
| Cc1ccc(S(=O)(=O)N(CC(C)C)[C@@H](CCCCNC(=O)N(Cc2ccccc2)Cc2ccccc2)C(=O)O)cc1 | 8 nM | – |
| Cc1ccc(S(=O)(=O)N(CC(C)C)[C@H](CO)CCCCNC(=O)CN(Cc2ccccc2)c2ccccc2)cc1 | 7.6 nM | 4200 nM |
| Cc1ccc(S(=O)(=O)N(CC(C)C)[C@H](CO)CCCCNC(=O)CN(c2ccccc2)c2ccccc2)cc1 | 12 nM | 6700 nM |
| Cc1ccc(S(=O)(=O)N(CC(C)C)[C@@H](CCCCNC(=O)[C@@H](O)Cc2ccccc2)C(=O)O)cc1 | 6.2 nM | – |
| Cc1ccc(S(=O)(=O)N(CC(C)C)[C@H](CO)CCCCNC(=O)CN(Cc2cccc(N)c2)c2ccccc2)cc1 | 7.6 nM | 3000 nM |
| Cc1ccc(S(=O)(=O)N(CC(C)C)[C@@H](CCCCNC(=O)C(=O)Cc2ccccc2)C(=O)O)cc1 | 14 nM | – |
| Cc1ccc(S(=O)(=O)N(CC(C)C)[C@@H](CCCCNC(=O)NCc2ccccc2)C(=O)O)cc1 | 32 nM | – |
| Cc1ccc(S(=O)(=O)N(CC(C)C)[C@@H](CCCCNC(=O)c2ccccc2)C(=O)O)cc1 | > 300 nM | – |
| CC(C)CN([C@H](CO)CCCCNC(=O)CN(Cc1cccc(N)c1)c1ccccc1)S(=O)(=O)c1ccc(N)cc1 | 6.9 nM | 524 nM |
| CC(C)CN([C@H](CO)CCCCNC(=O)CN(Cc1cccc([N+](=O)[O-])c1)c1ccccc1)S(=O)(=O)c1ccc(N)cc1 | 1.2 nM | 339 nM |
| Cc1ccc(S(=O)(=O)N(CC(C)C)[C@@H](CCCCNC(=O)CCc2ccccc2)C(=O)O)cc1 | 6.9 nM | – |
| Cc1ccc(S(=O)(=O)N(CC(C)C)[C@@H](CCCCNC(=O)Cc2ccccc2)C(=O)O)cc1 | > 300 nM | – |
| COc1cccc(CN(CC(=O)NCCCC[C@@H](CO)N(CC(C)C)S(=O)(=O)c2ccc(C)cc2)c2ccccc2)c1OC | 2.4 nM | 760 nM |
| CN[C@@H](Cc1ccccc1)C(=O)NCCCC[C@@H](C(=O)O)N(CC(C)C)S(=O)(=O)c1ccc(C)cc1 | 2.1 nM | – |
| Cc1ccc(S(=O)(=O)N(CC(C)C)[C@H](CO)CCCCNC(=O)CN(Cc2cccc([N+](=O)[O-])c2)c2ccccc2)cc1 | 1.4 nM | 730 nM |
| COc1ccc(CN(CC(=O)NCCCC[C@@H](CO)N(CC(C)C)S(=O)(=O)c2ccc(N)cc2)c2ccccc2)cc1 | 2.4 nM | – |

| SMILES | Ki [1] | EC50 [2] |
| --- | --- | --- |
| CC(C)CN([C@H](CO)CCCCNC(=O)CN(Cc1ccc([N+](=O)[O-])cc1)c1ccccc1)S(=O)(=O)c1ccc(N)cc1 | 0.59 nM | 540 nM |
| Cc1ccc(S(=O)(=O)N(CC(C)C)[C@@H](CCCCNC(=O)/C=C/c2ccccc2)C(=O)O)cc1 | > 300 nM | – |
| COc1ccc(CN(CC(=O)NCCCC[C@@H](CO)N(CC(C)C)S(=O)(=O)c2ccc(C)cc2)c2ccccc2)cc1 | 7.3 nM | > 10000 nM |
| Cc1ccc(S(=O)(=O)N(CC(C)C)[C@@H](CCCCNC(=O)CCCc2ccccc2)C(=O)O)cc1 | > 300 nM | – |
| COc1ccc(CN(CC(=O)NCCCC[C@@H](CO)N(CC(C)C)S(=O)(=O)c2ccc(N)cc2)c2ccccc2)cc1OC | 2.9 nM | 366 nM |
| Cc1ccc(S(=O)(=O)N(CC(C)C)[C@H](CO)CCCCNC(=O)CN(CCc2ccccc2)c2ccccc2)cc1 | 52 nM | > 10000 nM |
| Cc1ccc(S(=O)(=O)N(CC(C)C)[C@@H](CCCCNC(=O)[C@@H](N)Cc2ccccc2)C(=O)O)cc1 | 1.5 nM | – |
| Cc1ccc(S(=O)(=O)N(CC(C)C)[C@@H](CCCCNC(=O)N(C)Cc2ccccc2)C(=O)O)cc1 | 55 nM | – |
| Cc1ccc(S(=O)(=O)N(CC(C)C)[C@@H](CCCCNC(=O)CN(C)c2ccccc2)C(=O)O)cc1 | 12 nM | – |
| CC(C)CN([C@H](CO)CCCCNC(=O)CN(Cc1cccc(F)c1)c1ccccc1)S(=O)(=O)c1ccc(N)cc1 | 1.1 nM | 1100 nM |
| Cc1ccc(S(=O)(=O)N(CC(C)C)[C@@H](CCCCNC(=O)C(c2ccccc2)c2ccccc2)C(=O)O)cc1 | 171 nM | – |
| Cc1ccc(S(=O)(=O)N(CC(C)C)[C@@H](CCCCNC(=O)COc2ccccc2)C(=O)O)cc1 | 18 nM | – |
| Cc1ccc(S(=O)(=O)N(CC(C)C)[C@@H](CCCCNC(=O)C2CC2c2ccccc2)C(=O)O)cc1 (stereo partly specified) | > 300 nM | – |
| Cc1ccc(S(=O)(=O)N(CC(C)C)[C@H](CO)CCCCNC(=O)CN(Cc2ccccc2[N+](=O)[O-])c2ccccc2)cc1 | 3.9 nM | 3500 nM |
| Cc1ccc(S(=O)(=O)N(CC(C)C)[C@@H](CCCCNC(=O)CSc2ccccc2)C(=O)O)cc1 | 18 nM | – |
| COc1ccc(CN(CC(=O)NCCCC[C@@H](CO)N(CC(C)C)S(=O)(=O)c2ccc(C)cc2)c2ccccc2)cc1OC | 3.5 nM | 1300 nM |
| CC(C)CN([C@H](CO)CCCCNC(=O)CN(Cc1ccccc1[N+](=O)[O-])c1ccccc1)S(=O)(=O)c1ccc(N)cc1 | 1.5 nM | 341 nM |
| COc1cccc(CN(CC(=O)NCCCC[C@@H](CO)N(CC(C)C)S(=O)(=O)c2ccc(N)cc2)c2ccccc2)c1OC | – | 340 nM |
| CC(C)CN([C@H](CO)CCCCNC(=O)CN(Cc1ccccc1F)c1ccccc1)S(=O)(=O)c1ccc(N)cc1 | 2.3 nM | 2200 nM |
| CC(C)CN([C@H](CO)CCCCNC(=O)CN(Cc1ccc(F)cc1)c1ccccc1)S(=O)(=O)c1ccc(N)cc1 | 2.3 nM | 1000 nM |
| Cc1ccc(S(=O)(=O)N(CC(C)C)[C@@H](CCCCNC(=O)C(Cc2ccccc2)C(C)(C)C)C(=O)O)cc1 (stereo partly specified) | > 300 nM | – |

— ChEMBL document CHEMBL1145883, “Lysine sulfonamides as novel HIV-protease inhibitors: optimization of the Nepsilon-acyl-phenyl spacer” (Bioorg Med Chem Lett, 2003)
